From PubChem BioAssay AID1745844 (Carcinogenic Potency Database (CPDB), 2022)
The source made the active and inactive calls. The rule behind the calls is not given here.

System: rodent lifetime carcinogenesis bioassay, tumor incidence TD50
Test: carcinogenic potency in animals, long-term in vivo studies, CPDB compilation (AID 1745844)
[1] = rat, strain Osborne-Mendel, both sexes, in feed, site: any site (literature study), lesion: several types, types named in the paper, dosed 104 weeks, study length 104 weeks

For `ClC1=C(Cl)[C@]2(Cl)[C@H]3[C@H]([C@@H]4C=C[C@H]3C4)[C@@]1(Cl)C2(Cl)Cl`, the carcinogen call (mouse, strain B6C3F1, females, in feed, site: any site (literature study), lesion: several types, types named in the paper, dosed 80 weeks, study length 90 weeks) was “negative (inactive)”, the TD50 (mouse, strain B6C3F1, females, in feed, site: lung, lesion: alveolar/bronchiolar adenoma + alveolar/bronchiolar carcinoma, dosed 80 weeks, study length 90 weeks) was 9.02 mg/kg/day and the TD50 (mouse, strain B6C3F1, males, in feed, site: any site (literature study), lesion: several types, types named in the paper, dosed 80 weeks, study length 90 weeks) was 1.01 mg/kg/day. For the same compound, the TD50 (mouse, strain B6C3F1, males, in feed, site: liver, lesion: hepatocellular adenoma + hepatocellular carcinoma + neoplastic nodule, dosed 80 weeks, study length 90 weeks) was 0.741 mg/kg/day, the TD50 (mouse, strain B6C3F1, males, in feed, site: liver, lesion: hepatocellular carcinoma, dosed 80 weeks, study length 89 weeks) was 0.861 mg/kg/day and the TD50 (mouse, strain B6C3F1, males, in feed, site: liver, lesion: hepatocellular carcinoma, dosed 80 weeks, study length 90 weeks) was 0.741 mg/kg/day. It also gave a TD50 (mouse, strain B6C3F1, males, in feed, site: lung, lesion: alveolar/bronchiolar adenoma + alveolar/bronchiolar carcinoma, dosed 80 weeks, study length 90 weeks) of 3.2 mg/kg/day, a TD50 (mouse, strain C3HeB/Fe, both sexes, in feed, site: any site (literature study), lesion: benign tumor, dosed 104 weeks, study length 104 weeks) of 4.25 mg/kg/day and a TD50 (mouse, strain C3HeB/Fe, both sexes, in feed, site: liver, lesion: hepatocellular adenoma, dosed 104 weeks, study length 104 weeks) of 4.41 mg/kg/day. For the same compound, the TD50 (mouse, strain C3HeB/Fe, both sexes, in feed, site: liver, lesion: hepatoma, dosed 104 weeks, study length 104 weeks) was 3.45 mg/kg/day, the TD50 (mouse, strain C3HeB/Fe, both sexes, in feed, site: lung, lesion: carcinoma, dosed 104 weeks, study length 104 weeks) was 129 mg/kg/day and the carcinogen call (rat, strain Not specified, females, in feed, site: any site (literature study), lesion: one or several types, types not named, dosed 104 weeks, study length 104 weeks) was “negative (inactive)”. For the same compound, the carcinogen call (rat, strain Not specified, males, in feed, site: any site (literature study), lesion: one or several types, types not named, dosed 104 weeks, study length 104 weeks) was “negative (inactive)”, the carcinogen call [1] was “positive” and the TD50 (rat, strain Osborne-Mendel, both sexes, in feed, site: lung, lesion: lymphosarcoma, dosed 104 weeks, study length 104 weeks) was 42.3 mg/kg/day. For the same compound, the TD50 (rat, strain Osborne-Mendel, females, in feed, site: adrenal gland, lesion: cortical adenoma, dosed 80 weeks, study length 109 weeks) was 3.12 mg/kg/day (inactive), the TD50 (rat, strain Osborne-Mendel, females, in feed, site: any site (literature study), lesion: one or several types, types not named, dosed 104 weeks, study length 104 weeks) was 1.69 mg/kg/day and the carcinogen call (rat, strain Osborne-Mendel, females, in feed, site: any site (literature study), lesion: several types, types named in the paper, dosed 80 weeks, study length 111 weeks) was “negative (inactive)”. For the same compound, the carcinogen call (rat, strain Osborne-Mendel, females, in feed, site: any site (literature study), lesion: several types, types named in the paper, dosed 108 weeks, study length 108 weeks) was “negative (inactive)”, the carcinogen call (rat, strain Osborne-Mendel, females, in feed, site: any site (literature study), lesion: several types, types named in the paper, dosed 111 weeks, study length 117 weeks) was “negative (inactive)” and the TD50 (rat, strain Osborne-Mendel, females, in feed, site: liver, lesion: hepatocellular adenoma + hepatocellular carcinoma + neoplastic nodule, dosed 80 weeks, study length 111 weeks) was 466 mg/kg/day. The carcinogen call (rat, strain Osborne-Mendel, females, in feed, site: liver, lesion: one or several types, types not named, dosed 104 weeks, study length 104 weeks) was “negative (inactive)”, the carcinogen call (rat, strain Osborne-Mendel, females, in feed, site: liver, lesion: one or several types, types not named, dosed 108 weeks, study length 108 weeks) was “negative (inactive)” and the carcinogen call (rat, strain Osborne-Mendel, females, in feed, site: liver, lesion: one or several types, types not named, dosed 111 weeks, study length 117 weeks) was “negative (inactive)”. The TD50 (rat, strain Osborne-Mendel, females, in feed, site: lymphoreticular system, lesion: one or several types, types not named, dosed 104 weeks, study length 104 weeks) was 4.35 mg/kg/day (inactive), the TD50 (rat, strain Osborne-Mendel, males, in feed, site: any site (literature study), lesion: several types, types named in the paper, dosed 74 weeks, study length 111 weeks) was 16.4 mg/kg/day (inactive) and the TD50 (rat, strain Osborne-Mendel, males, in feed, site: any site (literature study), lesion: several types, types named in the paper, dosed 108 weeks, study length 108 weeks) was 4.21 mg/kg/day (inactive). For the same compound, the carcinogen call (rat, strain Osborne-Mendel, males, in feed, site: any site (literature study), lesion: several types, types named in the paper, dosed 124 weeks, study length 134 weeks) was “negative (inactive)”, the carcinogen call (rat, strain Osborne-Mendel, males, in feed, site: liver, lesion: hemangioma, dosed 124 weeks, study length 134 weeks) was “negative (inactive)” and the carcinogen call (rat, strain Osborne-Mendel, males, in feed, site: liver, lesion: one or several types, types not named, dosed 108 weeks, study length 108 weeks) was “negative (inactive)”. The carcinogen call (rat, strain Sprague-Dawley, females, in feed, site: liver, lesion: one or several types, types not named, dosed 104 weeks, study length 104 weeks) was “negative (inactive)”.
`O=NN1CCCC1c1ccc[n+]([O-])c1` (stereo unspecified) was tested, and the TD50 (hamster, strain Syrian Golden, females, in drinking water, site: liver, lesion: angiosarcoma, dosed 31 weeks, study length 96 weeks) was 39 mg/kg/day (inactive), the TD50 (rat, strain Fischer 344, females, in drinking water, site: esophagus, lesion: several types, types named in the paper, dosed 36 weeks, study length 104 weeks) was 5.65 mg/kg/day and the TD50 (rat, strain Fischer 344, females, in drinking water, site: nasal cavity, lesion: several types, types named in the paper, dosed 36 weeks, study length 104 weeks) was 1.86 mg/kg/day. The TD50 (rat, strain Fischer 344, males, in drinking water, site: esophagus, lesion: papilloma, dosed 36 weeks, study length 104 weeks) was 2.64 mg/kg/day, the TD50 (rat, strain Fischer 344, males, in drinking water, site: esophagus, lesion: several types, types named in the paper, dosed 36 weeks, study length 104 weeks) was 1.63 mg/kg/day and the TD50 (rat, strain Fischer 344, males, in drinking water, site: nasal cavity, lesion: malignant tumor, dosed 36 weeks, study length 104 weeks) was 1.63 mg/kg/day. The TD50 (rat, strain Fischer 344, males, in drinking water, site: nasal cavity, lesion: papilloma, dosed 36 weeks, study length 104 weeks) was 2.64 mg/kg/day and the TD50 (rat, strain Fischer 344, males, in drinking water, site: nasal cavity, lesion: several types, types named in the paper, dosed 36 weeks, study length 104 weeks) was 0.573 mg/kg/day.
`CC(=O)Nc1ccc(CC(=O)O)cc1` was tested, and the carcinogen call (mouse, strain B6C3F1, females, in feed, site: liver, lesion: hepatocellular adenoma, dosed 78 weeks, study length 78 weeks) was “negative (inactive)”, the carcinogen call (mouse, strain B6C3F1, females, in feed, site: liver, lesion: hepatocellular carcinoma, dosed 78 weeks, study length 78 weeks) was “negative (inactive)” and the carcinogen call (mouse, strain B6C3F1, females, in feed, site: lung, lesion: several types, types named in the paper, dosed 78 weeks, study length 78 weeks) was “negative (inactive)”. The carcinogen call (mouse, strain B6C3F1, males, in feed, site: liver, lesion: hepatocellular adenoma, dosed 78 weeks, study length 78 weeks) was “negative (inactive)”, the TD50 (mouse, strain B6C3F1, males, in feed, site: lung, lesion: alveolar/bronchiolar adenoma, dosed 78 weeks, study length 78 weeks) was 27700 mg/kg/day (inactive) and the TD50 (mouse, strain B6C3F1, males, in feed, site: lung, lesion: alveolar/bronchiolar carcinoma, dosed 78 weeks, study length 78 weeks) was 56100 mg/kg/day (inactive). The carcinogen call (rat, strain Fischer 344, females, in feed, site: liver, lesion: several types, types named in the paper, dosed 104 weeks, study length 104 weeks) was “negative (inactive)”, the carcinogen call (rat, strain Fischer 344, males, in feed, site: liver, lesion: hepatocellular adenoma, dosed 104 weeks, study length 104 weeks) was “negative (inactive)” and the carcinogen call (rat, strain Fischer 344, males, in feed, site: liver, lesion: hepatocellular carcinoma, dosed 104 weeks, study length 104 weeks) was “negative (inactive)”.
With `CCN(Cc1cccc(S(=O)(=O)O)c1)c1ccc(C(=C2C=CC(=[N+](CC)Cc3cccc(S(=O)(=O)O)c3)C=C2)c2ccccc2S(=O)(=O)[O-])cc1` the carcinogen call (mouse, strain Charles River CD1, females, in feed, site: liver, lesion: hemangioma, dosed 104 weeks, study length 104 weeks) was “negative (inactive)”, the TD50 (mouse, strain Charles River CD1, females, in feed, site: lung, lesion: adenocarcinoma, dosed 104 weeks, study length 104 weeks) was 372000 mg/kg/day (inactive) and the carcinogen call (mouse, strain Charles River CD1, females, in feed, site: lung, lesion: alveolar-cell adenoma, dosed 104 weeks, study length 104 weeks) was “negative (inactive)”. The TD50 (mouse, strain Charles River CD1, females, in feed, site: lung, lesion: alveolar-cell carcinoma, dosed 104 weeks, study length 104 weeks) was 607000 mg/kg/day (inactive), the carcinogen call (mouse, strain Charles River CD1, females, in feed, site: lung, lesion: bronchiolar adenocarcinoma, dosed 104 weeks, study length 104 weeks) was “negative (inactive)” and the TD50 (mouse, strain Charles River CD1, females, in feed, site: lung, lesion: bronchiolar adenoma, dosed 104 weeks, study length 104 weeks) was 856000 mg/kg/day (inactive). For the same compound, the carcinogen call (mouse, strain Charles River CD1, males, in feed, site: liver, lesion: hemangiosarcoma, dosed 104 weeks, study length 104 weeks) was “negative (inactive)”, the carcinogen call (mouse, strain Charles River CD1, males, in feed, site: liver, lesion: hepatocellular carcinoma, dosed 104 weeks, study length 104 weeks) was “negative (inactive)” and the TD50 (mouse, strain Charles River CD1, males, in feed, site: lung, lesion: adenocarcinoma, dosed 104 weeks, study length 104 weeks) was 293000 mg/kg/day (inactive). For the same compound, the carcinogen call (mouse, strain Charles River CD1, males, in feed, site: lung, lesion: alveogenic adenocarcinoma, dosed 104 weeks, study length 104 weeks) was “negative (inactive)”, the carcinogen call (mouse, strain Charles River CD1, males, in feed, site: lung, lesion: alveolar-cell adenoma, dosed 104 weeks, study length 104 weeks) was “negative (inactive)” and the carcinogen call (mouse, strain Charles River CD1, males, in feed, site: lung, lesion: alveolar-cell carcinoma, dosed 104 weeks, study length 104 weeks) was “negative (inactive)”. For the same compound, the TD50 (mouse, strain Charles River CD1, males, in feed, site: lung, lesion: bronchiolar adenocarcinoma, dosed 104 weeks, study length 104 weeks) was 343000 mg/kg/day (inactive), the TD50 (mouse, strain Charles River CD1, males, in feed, site: lung, lesion: bronchiolar adenoma, dosed 104 weeks, study length 104 weeks) was 91100 mg/kg/day (inactive) and the carcinogen call [1] was “negative (inactive)”. The TD50 (rat, strain Osborne-Mendel, both sexes, in feed, site: liver, lesion: hepatoma, dosed 104 weeks, study length 104 weeks) was 62100 mg/kg/day.
With `NC(=O)c1ccccc1C(N)=O` the carcinogen call (mouse, strain B6C3F1, females, in feed, site: any site (literature study), lesion: several types, types named in the paper, dosed 103 weeks, study length 103 weeks) was “negative (inactive)”, the TD50 (mouse, strain B6C3F1, males, in feed, site: any site (literature study), lesion: several types, types named in the paper, dosed 105 weeks, study length 105 weeks) was 1.1e+06 mg/kg/day (inactive) and the TD50 (mouse, strain B6C3F1, males, in feed, site: lung, lesion: alveolar/bronchiolar adenoma + alveolar/bronchiolar carcinoma, dosed 105 weeks, study length 105 weeks) was 35800 mg/kg/day. For the same compound, the TD50 (rat, strain Fischer 344, females, in feed, site: any site (literature study), lesion: several types, types named in the paper, dosed 106 weeks, study length 106 weeks) was 722 mg/kg/day (inactive), the TD50 (rat, strain Fischer 344, females, in feed, site: liver, lesion: hepatocellular adenoma + hepatocellular carcinoma + neoplastic nodule, dosed 106 weeks, study length 106 weeks) was 5390 mg/kg/day and the carcinogen call (rat, strain Fischer 344, males, in feed, site: any site (literature study), lesion: several types, types named in the paper, dosed 106 weeks, study length 106 weeks) was “negative (inactive)”. For the same compound, the TD50 (rat, strain Fischer 344, males, in feed, site: liver, lesion: hepatocellular adenoma + hepatocellular carcinoma + neoplastic nodule, dosed 106 weeks, study length 106 weeks) was 16600 mg/kg/day.
